According to PubChem BioAssay (NCI):
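Tested at 5 concentrations; 48 h exposure; 96-well plates; endpoints linearly interpolated, else capped at highest concentration. GI50 = concentration required for 50% inhibition of growth. The concentration for full growth arrest is given as TGI.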

Tests used:
Assay in all cases: NCI tumour cell line growth inhibition, 48 h
OVCAR-8 ovarian = test system: OVCAR-8 ovarian
CAKI-1 renal = test system: CAKI-1 renal
PC-3 prostate = test system: PC-3 prostate
SNB-75 CNS = test system: SNB-75 CNS
HCT-15 colon = test system: HCT-15 colon
BT-549 breast = test system: BT-549 breast
MDA-MB-231 breast = test system: MDA-MB-231 breast
A498 renal = test system: A498 renal
IGROV1 ovarian = test system: IGROV1 ovarian
OVCAR-4 ovarian = test system: OVCAR-4 ovarian
LOX IMVI melanoma = test system: LOX IMVI melanoma
NCI-H226 lung = test system: NCI-H226 lung
MOLT-4 leukemia = test system: MOLT-4 leukemia
K-562 leukemia = test system: K-562 leukemia
SK-MEL-5 melanoma = test system: SK-MEL-5 melanoma
COLO 205 colon = test system: COLO 205 colon
SK-OV-3 ovarian = test system: SK-OV-3 ovarian
786-0 renal = test system: 786-0 renal
SNB-19 CNS = test system: SNB-19 CNS
SK-MEL-2 melanoma = test system: SK-MEL-2 melanoma
OVCAR-3 ovarian = test system: OVCAR-3 ovarian
A549 NSCLC = test system: A549 NSCLC
NCI-H460 lung = test system: NCI-H460 lung
HCC-2998 colon = test system: HCC-2998 colon
SN12C renal = test system: SN12C renal
RXF 393 renal = test system: RXF 393 renal
SK-MEL-28 melanoma = test system: SK-MEL-28 melanoma
MCF7 breast = test system: MCF7 breast
ACHN renal = test system: ACHN renal
SR leukemia = test system: SR leukemia
HCT-116 colon = test system: HCT-116 colon
KM12 colon = test system: KM12 colon
DU-145 prostate = test system: DU-145 prostate
RPMI-8226 leukemia = test system: RPMI-8226 leukemia
OVCAR-5 ovarian = test system: OVCAR-5 ovarian
SF-268 CNS = test system: SF-268 CNS
HT29 colon = test system: HT29 colon
HS 578T breast = test system: HS 578T breast
SF-539 CNS = test system: SF-539 CNS
CCRF-CEM leukemia = test system: CCRF-CEM leukemia
UACC-257 melanoma = test system: UACC-257 melanoma
HOP-62 NSCLC = test system: HOP-62 NSCLC
NCI/ADR-RES ovarian = test system: NCI/ADR-RES ovarian
MDA-MB-435 = test system: MDA-MB-435
SF-295 CNS = test system: SF-295 CNS
M14 melanoma = test system: M14 melanoma
SW-620 colon = test system: SW-620 colon
NCI-H522 lung = test system: NCI-H522 lung
UACC-62 melanoma = test system: UACC-62 melanoma
HL-60(TB) leukemia = test system: HL-60(TB) leukemia
U251 CNS = test system: U251 CNS
UO-31 renal = test system: UO-31 renal
TK-10 renal = test system: TK-10 renal

Which results are given for `O=C1C=C(Nc2ccc([N+](=O)[O-])cc2)c2ccccc2C1=O`?
GI50 (OVCAR-8 ovarian): 2740 nM; TGI (OVCAR-8 ovarian): 12.6 µM; GI50 (CAKI-1 renal): 3.87 µM; TGI (CAKI-1 renal): 19 µM; GI50 (PC-3 prostate): 3700 nM; TGI (PC-3 prostate): 47.1 µM; GI50 (SNB-75 CNS): 1190 nM; TGI (SNB-75 CNS): 9.91 µM; GI50 (HCT-15 colon): 2420 nM; TGI (HCT-15 colon): 15.4 µM; GI50 (BT-549 breast): 3.56 µM; TGI (BT-549 breast): 14.5 µM; GI50 (MDA-MB-231 breast): 1720 nM; TGI (MDA-MB-231 breast): 13.2 µM; GI50 (A498 renal): 1470 nM; TGI (A498 renal): 6.75 µM; GI50 (IGROV1 ovarian): 5.99 µM; TGI (IGROV1 ovarian): 20.8 µM; GI50 (OVCAR-4 ovarian): 2070 nM; TGI (OVCAR-4 ovarian): 11.2 µM; GI50 (LOX IMVI melanoma): 2340 nM; TGI (LOX IMVI melanoma): 7.47 µM; GI50 (NCI-H226 lung): 12.6 µM; TGI (NCI-H226 lung): 28.1 µM; GI50 (MOLT-4 leukemia): 3.55 µM; TGI (MOLT-4 leukemia): 12.7 µM; GI50 (K-562 leukemia): 569 nM; TGI (K-562 leukemia): 15.3 µM; GI50 (SK-MEL-5 melanoma): 1560 nM; TGI (SK-MEL-5 melanoma): 3470 nM; GI50 (COLO 205 colon): 17.4 µM; TGI (COLO 205 colon): 34.8 µM; GI50 (SK-OV-3 ovarian): 11.6 µM; TGI (SK-OV-3 ovarian): 27.1 µM; GI50 (786-0 renal): 11.6 µM; TGI (786-0 renal): 33.8 µM; GI50 (SNB-19 CNS): 4.71 µM; TGI (SNB-19 CNS): 18.1 µM; GI50 (SK-MEL-2 melanoma): 2120 nM; TGI (SK-MEL-2 melanoma): 8.47 µM; GI50 (OVCAR-3 ovarian): 2070 nM; TGI (OVCAR-3 ovarian): 7.03 µM; GI50 (A549 NSCLC): 3960 nM; TGI (A549 NSCLC): 16.5 µM; GI50 (NCI-H460 lung): 4.45 µM; TGI (NCI-H460 lung): 17.2 µM; GI50 (HCC-2998 colon): 9.09 µM; TGI (HCC-2998 colon): 22.4 µM; GI50 (SN12C renal): 3.92 µM; TGI (SN12C renal): 15.1 µM; GI50 (RXF 393 renal): 6.6 µM; TGI (RXF 393 renal): 22.5 µM; GI50 (SK-MEL-28 melanoma): 3750 nM; TGI (SK-MEL-28 melanoma): 16.6 µM; GI50 (MCF7 breast): 2490 nM; TGI (MCF7 breast): 13.9 µM; GI50 (ACHN renal): 4300 nM; TGI (ACHN renal): 17.7 µM; GI50 (SR leukemia): 2550 nM; TGI (SR leukemia): > 100 µM; GI50 (HCT-116 colon): 2790 nM; TGI (HCT-116 colon): 12.4 µM; GI50 (KM12 colon): 3.3 µM; TGI (KM12 colon): 16.4 µM; GI50 (DU-145 prostate): 6.94 µM; TGI (DU-145 prostate): 19.6 µM; GI50 (RPMI-8226 leukemia): 3.37 µM; TGI (RPMI-8226 leukemia): 22.4 µM; GI50 (OVCAR-5 ovarian): 13.3 µM; TGI (OVCAR-5 ovarian): 27.5 µM; GI50 (SF-268 CNS): 5.39 µM; TGI (SF-268 CNS): 20.6 µM; GI50 (HT29 colon): 18.6 µM; TGI (HT29 colon): 42.3 µM; GI50 (HS 578T breast): 1780 nM; TGI (HS 578T breast): 9.96 µM; GI50 (SF-539 CNS): 3.5 µM; TGI (SF-539 CNS): 14.7 µM; GI50 (CCRF-CEM leukemia): 3.9 µM; TGI (CCRF-CEM leukemia): 26 µM; GI50 (UACC-257 melanoma): 3140 nM; TGI (UACC-257 melanoma): 13.8 µM; GI50 (HOP-62 NSCLC): 5.69 µM; TGI (HOP-62 NSCLC): 19.6 µM; GI50 (NCI/ADR-RES ovarian): 2.93 µM; TGI (NCI/ADR-RES ovarian): 29.3 µM; GI50 (MDA-MB-435): 392 nM; TGI (MDA-MB-435): 1410 nM; GI50 (SF-295 CNS): 4.93 µM; TGI (SF-295 CNS): 18 µM; GI50 (M14 melanoma): 3.49 µM; TGI (M14 melanoma): 16.7 µM; GI50 (SW-620 colon): 2470 nM; TGI (SW-620 colon): 15.5 µM; GI50 (NCI-H522 lung): 2910 nM; TGI (NCI-H522 lung): 14.4 µM; GI50 (UACC-62 melanoma): 1900 nM; TGI (UACC-62 melanoma): 5.88 µM; GI50 (HL-60(TB) leukemia): 2670 nM; TGI (HL-60(TB) leukemia): 7.19 µM; GI50 (U251 CNS): 3.07 µM; TGI (U251 CNS): 12.9 µM; GI50 (UO-31 renal): 1850 nM; TGI (UO-31 renal): 12.5 µM

What does the source list for `CCCc1n(Cc2ccc3ccccc3c2)c2ccccc2[n+]1Cc1ccc2ccccc2c1`?
GI50 (PC-3 prostate): 354 nM; TGI (PC-3 prostate): 1.55 µM; GI50 (MDA-MB-231 breast): 301 nM; TGI (MDA-MB-231 breast): 1.42 µM; GI50 (A498 renal): 356 nM; TGI (A498 renal): 1.98 µM; GI50 (SK-MEL-5 melanoma): 161 nM; TGI (SK-MEL-5 melanoma): 311 nM; GI50 (SK-OV-3 ovarian): 0.488 µM; TGI (SK-OV-3 ovarian): 1.74 µM; GI50 (786-0 renal): 1.06 µM; TGI (786-0 renal): 2.56 µM; GI50 (A549 NSCLC): 619 nM; TGI (A549 NSCLC): 2.04 µM; GI50 (SK-MEL-28 melanoma): 577 nM; TGI (SK-MEL-28 melanoma): 1.99 µM; GI50 (ACHN renal): 1250 nM; TGI (ACHN renal): 2.57 µM; GI50 (DU-145 prostate): 0.554 µM; TGI (DU-145 prostate): 1.85 µM; GI50 (OVCAR-5 ovarian): 0.544 µM; TGI (OVCAR-5 ovarian): 1.98 µM; GI50 (HT29 colon): 0.323 µM; TGI (HT29 colon): 1.28 µM; GI50 (TK-10 renal): 461 nM; TGI (TK-10 renal): 1680 nM; GI50 (UACC-257 melanoma): 295 nM; TGI (UACC-257 melanoma): 1.12 µM; GI50 (NCI/ADR-RES ovarian): 3.56 µM; TGI (NCI/ADR-RES ovarian): 53.9 µM; GI50 (MDA-MB-435): 314 nM; TGI (MDA-MB-435): 1260 nM; GI50 (SW-620 colon): 429 nM; TGI (SW-620 colon): 1.7 µM; GI50 (UACC-62 melanoma): 318 nM; TGI (UACC-62 melanoma): 1.42 µM; GI50 (UO-31 renal): 1490 nM; TGI (UO-31 renal): 3 µM
